Results taken from US20240254186A1, “GLP-1 Receptor Agonists Having Improved Pharmacological and Drug Delivery Properties” (priority 2021, published 2024).
Numbered stars: 1 amine (or outer) side, 2 acyl side, 3 side chain; on linkers, the order of the positions; unused ones are H or OH. Square brackets hold non-standard residues; d marks the D form. Side chains are listed from the residue outwards. Peptide text beside a SMILES is read from it. * marks the point of attachment. Dap(Nα-HOOC(CH2)16CO)OH = O=C(O)CCCCCCCCCCCCCCCCC(=O)N[C@@H](CN*)C(=O)O; X5 = O=C(O)CCCCCCCCCCCCCCCc1cn(-c2ccc(C[C@H](N[*:1])C(=O)[*:2])cc2)nn1; X3 = O=C(O)CCCCCCCCCCCCCCCc1cnnn1-c1ccc(C[C@H](N[*:1])C(=O)[*:2])cc1; X7 = C[C@@](Cc1ccc(-c2ccccc2)cc1)(N[*:1])C(=O)[*:2]; X4 = C[C@](Cc1ccc(-c2ccccc2)cc1)(N[*:1])C(=O)[*:2]; Bip = N[C@@H](Cc1ccc(-c2ccccc2)cc1)C(=O)O; C18 diacid = O=C(O)CCCCCCCCCCCCCCCCC(=O)*; X2 = O=C(CCc1ccc(I)cc1)N[C@@H](CN*)C(=O)O; αMePhe(2-F) = C[C@](N)(Cc1ccccc1F)C(=O)O; γGlu = O=C(O)[C@H](CCC(=O)[*:2])N[*:1]; PEG4 = NCCOCCOCCOCCOCCC(=O)O; αMeP = C[C@@]1(C(=O)O)CCCN1; AEEA = NCCOCCOCC(=O)O; Aib = CC(C)(N)C(=O)O; CO = O=C([*:1])[*:2]

molecular target: T1, hGLP1 receptor (Homo sapiens, UniProt P43220); test: cAMP HTRF agonist assay in HEK cells co-expressing the hGLP1 receptor and CRE-Luciferase construct; assay type: cell-based; details: Table 6; cell annotated (0% albumin); read-out: cAMP EC50
T1 construct: expressed in transfected cells; host or cells: HEK (human embryonic kidney) cells co-expressing hGLP1 receptor and a CRE-Luciferase construct
Experimental: Human embryonic kidney cells (HEK) co-expressing the hGLP1 receptor and CRE-Luciferase construct were used to determine agonist potency in this assay. The cells were thawed briefly at 37° C., transferred to a sterile tube and re-suspended in complete media at 37° C. Cells were centrifuged at 1000 rpm for 5 minutes and cells collected; cells were re-suspended in assay buffer consisting of DPBS (GIBCO) with 500 μM of the phosphodiesterase inhibitor IBMX. […] The optimal cell density was determined to be 1000 cells/well; cells were added to wells in 384-well plates containing appropriate pre-prepared dilutions of compounds (test peptides or reference compound exendin-4), sealed and incubated with CO2 for 30 min. Test peptide solutions were diluted from 10 mM stock solutions; for most peptides an initial run was performed in duplicate from a maximal concentration of 1.0 μM, with 11 concentrations tested for each peptide using serial 1:3 dilution from this maximal concentration. […] The agonist assay was a homogeneous time-resolved fluorescence (HTRF) assay (Cisbio).
Following incubation of the cells for 30 minutes with test or reference peptides, 5 μL of the cAMP acceptor cAMP-d2, prepared previously as a working solution from frozen stock (1:20 dilution), was added to each well of the assay plate, along with 5 μL of anti-cAMP antibody-cryptate working solution (diluted 1:20 from frozen stock). The wells were incubated for 1 hour at room temperature, and fluorescence was then read at 665 and 615 nm with an Envision reader with TRF laser. Data were saved and analyzed using Prism software (GraphPad). Concentration-response analysis was performed using 4-parameter logistic fits of the resulting data, and EC50 values obtained for each test and reference compound.

T1 sequence (P43220 24-463): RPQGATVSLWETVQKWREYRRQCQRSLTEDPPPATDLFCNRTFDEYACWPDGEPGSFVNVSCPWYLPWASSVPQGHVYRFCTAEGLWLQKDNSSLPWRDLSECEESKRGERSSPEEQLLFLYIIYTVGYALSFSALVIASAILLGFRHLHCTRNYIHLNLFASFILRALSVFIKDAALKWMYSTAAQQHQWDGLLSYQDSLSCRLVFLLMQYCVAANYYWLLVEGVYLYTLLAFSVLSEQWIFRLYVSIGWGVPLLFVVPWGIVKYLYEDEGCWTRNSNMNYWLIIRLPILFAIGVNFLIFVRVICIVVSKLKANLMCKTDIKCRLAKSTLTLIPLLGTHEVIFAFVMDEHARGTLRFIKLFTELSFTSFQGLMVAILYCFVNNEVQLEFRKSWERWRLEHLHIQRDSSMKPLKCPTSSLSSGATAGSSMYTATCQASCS

| EC50 | SMILES |
| --- | --- |
| 0.04 nM | C[C@@H](O)[C@H](NC(=O)CNC(=O)[C@H](CCC(=O)O)NC(=O)[C@]1(C)CCCN1C(=O)[C@@H](N)Cc1c[nH]cn1)C(=O)N[C@@](C)(Cc1ccccc1F)C(=O)N[C@H](C(=O)N[C@@H](CO)C(=O)N[C@@H](CC(=O)O)C(=O)N[C@@H](Cc1ccc(-c2ccccc2)cc1)C(=O)N[C@@H](Cc1ccc(-n2cc(CCCCCCCCCCCCCCCC(=O)O)nn2)cc1)C(N)=O)[C@@H](C)O [4-70-i1, H2N-His-α-MePro-Glu-Gly-Thr-α-MePhe(2-F)-Thr-Ser-Asp-Bip-FN3(C18 acid)-C(O)NH2] (H-H[αMeP]EGT[αMePhe(2-F)]TSD[Bip][X5]-NH2) |
| 0.7 nM | C[C@@H](O)[C@H](NC(=O)CNC(=O)[C@H](CCC(=O)O)NC(=O)[C@]1(C)CCCN1C(=O)[C@@H](N)Cc1c[nH]cn1)C(=O)N[C@@](C)(Cc1ccccc1F)C(=O)N[C@H](C(=O)N[C@@H](CO)C(=O)N[C@@H](CC(=O)O)C(=O)N[C@@H](Cc1ccc(-c2ccccc2)cc1)C(=O)N[C@@H](Cc1ccc(-n2nncc2CCCCCCCCCCCCCCCC(=O)O)cc1)C(N)=O)[C@@H](C)O [4-70-i2, H2N-His-α-MePro-Glu-Gly-Thr-α-MePhe(2-F)-Thr-Ser-Asp-Bip-FN3(C18 acid)-C(O)NH2] (H-H[αMeP]EGT[αMePhe(2-F)]TSD[Bip][X3]-NH2) |
| 0.009 nM | C[C@@H](O)[C@H](NC(=O)CNC(=O)[C@H](CCC(=O)O)NC(=O)[C@]1(C)CCCN1C(=O)[C@@H](N)Cc1c[nH]cn1)C(=O)N[C@@](C)(Cc1ccccc1F)C(=O)N[C@H](C(=O)N[C@@H](CO)C(=O)N[C@@H](CC(=O)O)C(=O)N[C@@H](Cc1ccc(-n2cc(CCCCCCCCCCCCCCCC(=O)O)nn2)cc1)C(=O)N[C@@H](Cc1ccc(-c2ccccc2)cc1)C(N)=O)[C@@H](C)O [4-71-i1, H2N-His-α-MePro-Glu-Gly-Thr-α-MePhe(2-F)-Thr-Ser-Asp-FN3(C18 acid)-Bip-C(O)NH2] (H-H[αMeP]EGT[αMePhe(2-F)]TSD[X5][Bip]-NH2) |
| 0.1 nM | C[C@@H](O)[C@H](NC(=O)CNC(=O)[C@H](CCC(=O)O)NC(=O)[C@]1(C)CCCN1C(=O)[C@@H](N)Cc1c[nH]cn1)C(=O)N[C@@](C)(Cc1ccccc1F)C(=O)N[C@H](C(=O)N[C@@H](CO)C(=O)N[C@@H](CC(=O)O)C(=O)N[C@@H](Cc1ccc(-n2nncc2CCCCCCCCCCCCCCCC(=O)O)cc1)C(=O)N[C@@H](Cc1ccc(-c2ccccc2)cc1)C(N)=O)[C@@H](C)O [4-71-i2, H2N-His-α-MePro-Glu-Gly-Thr-α-MePhe(2-F)-Thr-Ser-Asp-FN3(C18 acid)-Bip-C(O)NH2] (H-H[αMeP]EGT[αMePhe(2-F)]TSD[X3][Bip]-NH2) |
| 0.05 nM | C[C@@H](O)[C@H](NC(=O)CNC(=O)[C@H](CCC(=O)O)NC(=O)[C@]1(C)CCCN1C(=O)[C@@H](N)Cc1c[nH]cn1)C(=O)N[C@@](C)(Cc1ccccc1F)C(=O)N[C@H](C(=O)N[C@@H](CO)C(=O)N[C@@H](CC(=O)O)C(=O)N[C@@H](Cc1ccc(-c2ccccc2)cc1)C(=O)N[C@@](C)(Cc1ccc(-c2ccccc2)cc1)C(N)=O)[C@@H](C)O [4-73-i1, H2N-His-α-MePro-Glu-Gly-Thr-α-MePhe(2F)-Thr-Ser-Asp-Bip-α-MeBip-C(O)NH2] (H-H[αMeP]EGT[αMePhe(2-F)]TSD[Bip][X7]-NH2) |
| 0.2 nM | C[C@@H](O)[C@H](NC(=O)CNC(=O)[C@H](CCC(=O)O)NC(=O)[C@]1(C)CCCN1C(=O)[C@@H](N)Cc1c[nH]cn1)C(=O)N[C@@](C)(Cc1ccccc1F)C(=O)N[C@H](C(=O)N[C@@H](CO)C(=O)N[C@@H](CC(=O)O)C(=O)N[C@@H](Cc1ccc(-c2ccccc2)cc1)C(=O)N[C@](C)(Cc1ccc(-c2ccccc2)cc1)C(N)=O)[C@@H](C)O [4-73-i2, H2N-His-α-MePro-Glu-Gly-Thr-α-MePhe(2F)-Thr-Ser-Asp-Bip-α-MeBip-C(O)NH2] (H-H[αMeP]EGT[αMePhe(2-F)]TSD[Bip][X4]-NH2) |

same assay, conditions: read-out: cAMP EC50, nM (0.1% albumin); Table 6, C-terminal PK-modifier conjugates; 0.1% albumin

| SMILES | EC50 |
| --- | --- |
| C[C@@H](O)[C@H](NC(=O)CNC(=O)[C@H](CCC(=O)O)NC(=O)[C@]1(C)CCCN1C(=O)[C@@H](N)Cc1c[nH]cn1)C(=O)N[C@@](C)(Cc1ccccc1F)C(=O)N[C@H](C(=O)N[C@@H](CO)C(=O)N[C@@H](CC(=O)O)C(=O)N[C@@H](Cc1ccc(-c2ccccc2)cc1)C(=O)N[C@@H](Cc1ccc(-c2ccccc2)cc1)C(=O)NC(C)(C)C(=O)N[C@@H](CCCCNC(=O)CCOCCOCCOCCOCCNC(=O)CC[C@H](NC(=O)CCCCCCCCCCCCCCCCC(=O)O)C(=O)O)C(N)=O)[C@@H](C)O [4-65, H2N-His-α-MePro-Glu-Gly-Thr-α-MePhe(2-F)-Thr-Ser-Asp-Bip-Bip-C(O)NH-RY21] (H-H[αMeP]EGT[αMePhe(2-F)]TSD[Bip][Bip][Aib]K([PEG4-γGlu-C18 diacid])-NH2) | 3.8 nM |
| C[C@@H](O)[C@H](NC(=O)CNC(=O)[C@H](CCC(=O)O)NC(=O)C(C)(C)NC(=O)[C@@H](N)Cc1c[nH]cn1)C(=O)N[C@@](C)(Cc1ccccc1F)C(=O)N[C@H](C(=O)N[C@@H](CO)C(=O)N[C@@H](CC(=O)O)C(=O)N[C@@H](Cc1ccc(-c2ccccc2)cc1)C(=O)N[C@H](Cc1ccc(OC(=O)NCCOCCOCC(=O)NCCOCCOCC(N)=O)cc1)C(N)=O)[C@@H](C)O [(D)-4-42, H2N-His-Aib-Glu-Gly-Thr-α-MePhe(2-F)-Thr-Ser-Asp-Bip-D-Tyr(O-R4)-C(O)NH2] (H-H[Aib]EGT[αMePhe(2-F)]TSD[Bip][dY]([CO-AEEA-AEEA-NH2])-NH2) | 791 nM |
| C[C@@H](O)[C@H](NC(=O)CNC(=O)[C@H](CCC(=O)O)NC(=O)C(C)(C)NC(=O)[C@@H](N)Cc1c[nH]cn1)C(=O)N[C@@](C)(Cc1ccccc1F)C(=O)N[C@H](C(=O)N[C@@H](CO)C(=O)N[C@@H](CC(=O)O)C(=O)N[C@@H](Cc1ccc(-c2ccccc2)cc1)C(=O)N[C@H](Cc1ccc(OC(=O)NCCOCCOCC(=O)NCCOCCOCC(=O)NC[C@H](NC(=O)CCCCCCCCCCCCCCCCC(=O)O)C(=O)O)cc1)C(N)=O)[C@@H](C)O [(D)-4-43, H2N-His-Aib-Glu-Gly-Thr-α-MePhe(2-F)-Thr-Ser-Asp-Bip-D-Tyr(O-R5)-C(O)NH2] (H-H[Aib]EGT[αMePhe(2-F)]TSD[Bip][dY]([CO-AEEA-AEEA-Dap(Nα-HOOC(CH2)16CO)OH])-NH2) | 693 nM |
| C[C@@H](O)[C@H](NC(=O)CNC(=O)[C@H](CCC(=O)O)NC(=O)C(C)(C)NC(=O)[C@@H](N)Cc1c[nH]cn1)C(=O)N[C@@](C)(Cc1ccccc1F)C(=O)N[C@H](C(=O)N[C@@H](CO)C(=O)N[C@@H](CC(=O)O)C(=O)N[C@@H](Cc1ccc(-c2ccccc2)cc1)C(=O)N[C@H](Cc1ccc(OC(=O)NCCOCCOCC(=O)NCCOCCOCC(=O)NCCOCCOCC(=O)NC[C@H](NC(=O)CCc2ccc(I)cc2)C(=O)O)cc1)C(N)=O)[C@@H](C)O [(D)-4-44, H2N-His-Aib-Glu-Gly-Thr-α-MePhe(2-F)-Thr-Ser-Asp-Bip-D-Tyr(O-R6)-C(O)NH2] (H-H[Aib]EGT[αMePhe(2-F)]TSD[Bip][dY]([CO-AEEA-AEEA-AEEA-X2])-NH2) | 299 nM |
